We go through one compound from article PMC4434572, “Identification of novel drugs to target dormant micrometastases” (BMC Cancer, 2015).

Test [1] deals with protein tyrosine phosphatase (PTP). Details: method as in PMID 9575179. Particulars: cited from earlier work.
In test [2] the test system is cancer cells on SISgel or plastic. The test is described as follows: Activity of leads and analogs on cancer cells grown on plastic vs SISgel (cell line not stated). Type of test: cell-based. Here is the method: The NCI library is no longer available in the form used here, but how it was constructed is described (http://dtp.nci.nih.gov/branches/dscb/diversity_explanation.html). The ChemBridge library is a subset (Set Code NM1024) of the full 50,000 compound library (http://www.chembridge.com/screening_libraries/diversity_libraries/). Compounds were diluted to 100 μM before use. SISgel was prepared as described previously from powdered porcine small intestine submucosa obtained from Cook Biotech (W. Lafayette, IN). It is a natural product that is used extensively in tissue engineering as a bioscaffold. J82 bladder cancer cells and other cell lines were obtained from the ATCC (Bethesda, MD). […] Efficacy in vitro was assessed by plating 30,000 cells in 50 μL of high glucose DMEM with penicillin-streptomycin and 10 % fetal calf serum on SISgel in a 96-well plate containing 50 μL of gelled SISgel per well. Cells were allowed to attach and assume the SISgel phenotype for 48 h. A matching plate without SISgel was prepared 24 h later by pipetting 3,000 cells in 100 μL of high glucose DMEM with penicillin-streptomycin and 10 % fetal calf serum into each well of 96 well plate. The cells were allowed to attach and grow for 24 h. […] The cells were exposed to drug in fresh medium for 48 h, at which time the cell number was determined using the CFDA-AM cellular esterase proliferation assay (cat. #C1354, Life Technologies). For screening the results are reported as the ratio of cell count of cells on the plastic surface to the cell count on SISgel. An initial difference of 1.5 fold identified potential hits. All potential hits were confirmed in triplicate. […] Data were analyzed using nonlinear regression to a sigmoid curve with Prism 4 (GraphPad Software, Inc., LaJolla, CA). […]

Like-named read-outs stand apart in the source and are kept apart here.

For `Cc1ccc(C(=O)Nc2ccc(S(=O)(=O)O)c3cc(S(=O)(=O)O)cc(S(=O)(=O)O)c23)cc1NC(=O)c1cccc(NC(=O)Nc2cccc(C(=O)Nc3cc(C(=O)Nc4ccc(S(=O)(=O)O)c5cc(S(=O)(=O)O)cc(S(=O)(=O)O)c45)ccc3C)c2)c1` [Suramin, reference compound], the PTP inhibition result in test [1] is listed as “potent”. Further, the SR in test [2] (ratio IC50-p/IC50-S) turned out to be 1.4. For the same compound, the IC50 in test [2] (read-out: IC50-S) was determined as 226 µM; in test [2] (read-out: IC50-p) it was 321 µM.
